For 23 molecules, IC50 results are on record in patent US8999966B2, “Compounds that are ERK inhibitors” (Merck Sharp & Dohme Corp., priority 2010, dated 2015).

The structures appear in SMILES notation. pIC50: −log10 of the molar value.

The target in this assay is fully phosphorylated, active Mouse ERK2 protein (Mus musculus, UniProt P63085). Description: Active ERK2 assay (AERK2), IMAP format. It counts as biochemical. The settings on record: activated ERK2, IMAP fluorescence polarization, 30 μM ATP. How it is done: 14 μl of kinase buffer (10 mM Tris.HCl pH 7.2, 10 mM MgCl2, 0.01% Tween-20, 1 mM DTT) containing 0.4 ng unphosphorylated Mouse ERK2 protein can be added to each well of a black 384-well assay plate. […] DMSO concentration during initial incubation is 6.7%. ERK2 activity can be determined to be insensitive to DMSO concentrations up to 20%. ERK2 can then be activated and it's kinase activity can be measured by the addition of 10 μl kinase buffer with the following components (final concentration per reaction): 2 ng active (phosphorylated) human MEK1 protein and 4 μM (total) ERK2 IMAP substrate peptides (3.9 μM unlabeled IPTTPITTTYFFFK-CONH2 and 100 nM IPTTPITTTYFFFK(5-carboxyfluorescein)-CONH2) and 30 μM ATP. DMSO concentration during ERK activation can be 4%. After one hour, reactions can be terminated by addition of 60 μl IMAP detections beads in binding buffer (Molecular Devices). Binding can be allowed to equilibrate for 30 minutes before reading the plate on an LJL Analyst Fluorescence Polarization plate reader. […] Active compounds can be reconfirmed in an independent assay.
Activated ERK2 activity was also determined in the IMAP assay format using the procedure outlined above. 1 μl of 25× compound was added to 14 μl of kinase buffer containing 0.25 ng fully phosphorylated, active Mouse ERK2 protein. Following a 30 minute incubation, the reactions were initiated by addition of 10 μl of kinase buffer containing 1 μM ERK2 IMAP substrate peptide (0.9 μM unlabeled IPTTPITTTYFFFK-CONH2 and 100 nM IPTTPITTTYFFFK(5-carboxyfluorescein)-CONH2) and 30 μM ATP. Reactions proceeded for 30 minutes before termination by addition of 60 μl IMAP detection beads in binding buffer. Plates were read as above after 30 minute binding equilibration. Active compounds were reconfirmed in an independent assay.
A general note: In fluorescence polarisation assays a small probe gives low polarisation when free and higher when bound to something large.

Sequence of fully phosphorylated, active Mouse ERK2 protein (P63085 whole entry): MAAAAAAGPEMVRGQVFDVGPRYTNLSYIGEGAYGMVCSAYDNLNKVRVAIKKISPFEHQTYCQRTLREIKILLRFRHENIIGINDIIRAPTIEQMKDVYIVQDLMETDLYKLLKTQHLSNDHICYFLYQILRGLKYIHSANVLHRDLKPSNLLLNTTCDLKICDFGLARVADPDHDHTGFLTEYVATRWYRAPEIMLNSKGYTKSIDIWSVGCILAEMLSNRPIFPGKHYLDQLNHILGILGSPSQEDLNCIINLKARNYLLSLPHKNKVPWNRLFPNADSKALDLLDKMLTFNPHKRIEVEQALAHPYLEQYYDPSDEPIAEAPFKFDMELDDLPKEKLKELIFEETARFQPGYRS

As to `Cn1cc(CN2CCC[C@@H](c3nnc(-c4ccc5[nH]nc(-c6ccc7nccn7c6)c5c4)o3)C2)c2ccccc21` [Example 328, 3-IMIDAZO[1,2-a]PYRIDIN-6- YL-5-[5-[1-[(1-METHYL-1H- INDOL-3-YL)METHYL]-3(R)- PIPERIDINYL]-1,3,4- OXADIAZOL-2-YL]-1H- INDAZOLE], the pIC50 – broadly, the IC50 on a negative log10 scale, so that one unit is a factor of ten – was under 6.00.

On to `Cn1c(CN2CCC[C@@H](c3nnc(-c4ccc5[nH]nc(-c6ccc7nccn7c6)c5c4)o3)C2)cc2ccccc21` [Example 329, 3-IMIDAZO[1,2-a]PYRIDIN-6- YL-5-[5-[1-[(1-METHYL-1H- INDOL-2-YL)METHYL]-3(R)- PIPERIDINYL]-1,3,4- OXADIAZOL-2-YL]-1H- INDAZOLE], for which the pIC50 is under 6.00.

Molecule `COc1cccc(F)c1CN1CCC[C@@H](c2nnc(-c3ccc4[nH]nc(-c5ccnc(C)c5)c4c3)o2)C1` [Example 336, 5-[5-[1-[(2-FLUORO-6- METHOXYPHENYL)METHYL]- 3(R)-PIPERIDINYL]-1,3,4- OXADIAZOL-2-YL]-3-(2- METHYL-4-PYRIDINYL)-1H- INDAZOLE] had a pIC50 of 7.98 to 9.52.

In turn, `CCn1cc(-c2n[nH]c3ccc(-c4nnc([C@@H]5CCCN(Cc6csc7ccccc67)C5)o4)cc23)cn1` [Example 339, 5-[5-[1-(BENZO[b]THIEN-3- YLMETHYL)-3(R)- PIPERIDINYL]-1,3,4- OXADIAZOL-2-YL]-3-(1- ETHYL-1H-PYRAZOL-4-YL)- 1H-INDAZOLE] gave a pIC50 of under 6.00.

`CCn1cc(-c2n[nH]c3ccc(-c4nnc([C@@H]5CCCN(Cc6cn(C)c7ccccc67)C5)o4)cc23)cn1` [Example 341, 3-(1-ETHYL-1H-PYRAZOL-4- YL)-5-[5-[1-[(1-METHYL-1H- INDOL-3-YL)METHYL]-3(R)- PIPERIDINYL]-1,3,4- OXADIAZOL-2-YL]-1H- INDAZOLE]: the negative-log IC50 (pIC50) is under 6.00.

Turning to `CCn1cc(-c2n[nH]c3ccc(-c4nnc([C@@H]5CCCN(Cc6cc7ccccc7n6C)C5)o4)cc23)cn1` [Example 342, 3-(1-ETHYL-1H-PYRAZOL-4- YL)-5-[5-[1-[(1-METHYL-1H- INDOL-2-YL)METHYL]-3(R)- PIPERIDINYL]-1,3,4- OXADIAZOL-2-YL]-1H- INDAZOLE], the negative logarithm of the IC50 (pIC50) is under 6.00.

Turning to `CCn1cc(-c2n[nH]c3ccc(-c4nnc([C@@H]5CCCN(Cc6cc(F)c(Cl)cc6Cl)C5)o4)cc23)cn1` [Example 345, 5-[5-[1-[(2,4-DICHLORO-5- FLUOROPHENYL)METHYL]- 3(R)-PIPERIDINYL]-1,3,4- OXADIAZOL-2-YL]-3-(1- ETHYL-1H-PYRAZOL-4-YL)- 1H-INDAZOLE], the pIC50 was under 6.00.

Turning to `Fc1ccccc1CN1CCC[C@@H](c2nnc(-c3ccc4[nH]nc(-c5ccc6occc6c5)c4c3)o2)C1` [Example 347, 3-(5-BENZOFURANYL)-5-[5- [1-[(2- FLUOROPHENYL)METHYL]- 3(R)-PIPERIDINYL]-1,3,4- OXADIAZOL-2-YL]-1H- INDAZOLE], the negative logarithm of the IC50 (pIC50) was at most 6.30.

`Fc1cccc(F)c1CN1CCC[C@@H](c2nnc(-c3ccc4[nH]nc(-c5ccc6occc6c5)c4c3)o2)C1` [Example 348, 3-(5-BENZOFURANYL)-5-[5- [1-[(2,6- DIFLUOROPHENYL)METHYL]- 3(R)-PIPERIDINYL]-1,3,4- OXADIAZOL-2-YL]-1H- INDAZOLE] showed a pIC50 of under 6.00.

`COc1cccc(F)c1CN1CCC[C@@H](c2nnc(-c3ccc4[nH]nc(-c5ccc6occc6c5)c4c3)o2)C1` [Example 349, 3-(5-BENZOFURANYL)-5-[5- [1-[(2-FLUORO-6- METHOXYPHENYL)METHYL]- 3(R)-PIPERIDINYL]-1,3,4- OXADIAZOL-2-YL]-1H- INDAZOLE]: the pIC50 is at most 6.30.

`c1ccc2oc(CN3CCC[C@@H](c4nnc(-c5ccc6[nH]nc(-c7ccc8occc8c7)c6c5)o4)C3)cc2c1` [Example 350, 3-(5-BENZOFURANYL)-5-[5- [1-(2- BENZOFURANYLMETHYL)- 3(R)-PIPERIDINYL]-1,3,4- OXADIAZOL-2-YL]-1H- INDAZOLE] gave a pIC50 of under 6.00.

In turn, `c1cc(CN2CCC[C@@H](c3nnc(-c4ccc5[nH]nc(-c6ccc7occc7c6)c5c4)o3)C2)ncn1` [Example 351, 3-(5-BENZOFURANYL)-5-[5- [1-(4- PYRIMIDINYLMETHYL)- 3(R)-PIPERIDINYL]-1,3,4- OXADIAZOL-2-YL]-1H- INDAZOLE] gave a pIC50 of under 6.00.

Regarding `c1cc2cc(-c3n[nH]c4ccc(-c5nnc([C@@H]6CCCN(CC7CCCCC7)C6)o5)cc34)ccc2o1` [Example 352, 3-(5-BENZOFURANYL)-5-[5- [1-(CYCLOHEXYLMETHYL)- 3(R)-PIPERIDINYL]-1,3,4- OXADIAZOL-2-YL]-1H- INDAZOLE], the negative logarithm of the IC50 (pIC50) was under 6.00.

The molecule `Fc1ccccc1CN1CCC[C@@H](c2nnc(-c3ccc4[nH]nc(-c5ccnc(Cl)c5)c4c3)o2)C1` [Example 353, 3-(2-CHLORO-4-PYRIDINYL)- 5-[5-[1-[(2- FLUOROPHENYL)METHYL]- 3(R)-PIPERIDINYL]-1,3,4- OXADIAZOL-2-YL]-1H- INDAZOLE] gave a pIC50 of at most 6.30.

Molecule `Clc1cc(-c2n[nH]c3ccc(-c4nnc([C@@H]5CCCN(Cc6csc7ccccc67)C5)o4)cc23)ccn1` [Example 354, 5-[5-[1-(BENZO[b]THIEN-3- YLMETHYL)-3(R)- PIPERIDINYL]-1,3,4- OXADIAZOL-2-YL]-3-(2- CHLORO-4-PYRIDINYL)-1H- INDAZOLE] had a pIC50 of under 6.00.

`Clc1cc(-c2n[nH]c3ccc(-c4nnc([C@@H]5CCCN(Cc6cc7ccccc7o6)C5)o4)cc23)ccn1` [Example 357, 5-[5-[1-(2- BENZOFURANYLMETHYL)- 3(R)-PIPERIDINYL]-1,3,4- OXADIAZOL-2-YL]-3-(2- CHLORO-4-PYRIDINYL)-1H- INDAZOLE] gave a negative-log IC50 (pIC50) of at most 6.30.

Turning to `Fc1cc(CN2CCC[C@@H](c3nnc(-c4ccc5[nH]nc(-c6ccnc(Cl)c6)c5c4)o3)C2)c(Cl)cc1Cl` [Example 358, 3-(2-CHLORO-4-PYRIDINYL)- 5-[5-[1-[(2,4-DICHLORO-5- FLUOROPHENYL)METHYL]- 3(R)-PIPERIDINYL]-1,3,4- OXADIAZOL-2-YL]-1H- INDAZOLE], the pIC50 is at most 6.30.

In turn, `Clc1cc(-c2n[nH]c3ccc(-c4nnc([C@@H]5CCCN(Cc6cc7ccccc7s6)C5)o4)cc23)ccn1` [Example 359, 5-[5-[1-(BENZO[b]THIEN-2- YLMETHYL)-3(R)- PIPERIDINYL]-1,3,4- OXADIAZOL-2-YL]-3-(2- CHLORO-4-PYRIDINYL)-1H- INDAZOLE] showed a pIC50 of at most 6.30.

Molecule `Clc1cc(-c2n[nH]c3ccc(-c4nnc([C@@H]5CCCN(Cc6ccncn6)C5)o4)cc23)ccn1` [Example 360, 3-(2-CHLORO-4-PYRIDINYL)- 5-[5-[1-(4- PYRIMIDINYLMETHYL)- 3(R)-PIPERIDINYL]-1,3,4- OXADIAZOL-2-YL]-1H- INDAZOLE] had a pIC50 of at most 6.30.

The molecule `COc1cccc(CN2CCC[C@@H](c3nnc(-c4ccc5[nH]nc(-c6ccnc(Cl)c6)c5c4)o3)C2)n1` [Example 361, 3-(2-CHLORO-4-PYRIDINYL)- 5-[5-[1-[(6-METHOXY-2- PYRIDINYL)METHYL]-3(R)- PIPERIDINYL]-1,3,4- OXADIAZOL-2-YL]-1H- INDAZOLE] had a negative-log IC50 (pIC50) of at most 6.30.

Turning to `Clc1cc(-c2n[nH]c3ccc(-c4nnc([C@@H]5CCCN(CC6CCCCC6)C5)o4)cc23)ccn1` [Example 362, 3-(2-CHLORO-4-PYRIDINYL)- 5-[5-[1- (CYCLOHEXYLMETHYL)- 3(R)-PIPERIDINYL]-1,3,4- OXADIAZOL-2-YL]-1H- INDAZOLE], the negative logarithm of the IC50 (pIC50) was at most 6.30.

In turn, `Fc1cccc(F)c1CN1CCCC(c2ccn(-c3ccc4[nH]nc(-c5ccncc5)c4c3)n2)C1` (centres unmarked) [Example 367, 5-[3-[1-[(2,6- DIFLUOROPHENYL)METHYL]- 3-PIPERIDINYL]-1H- PYRAZOL-1-YL]-3-(4- PYRIDINYL)-1H-INDAZOLE] had a negative-log IC50 (pIC50) of under 6.00.

Molecule `COc1cccc(F)c1CN1CCCC(c2ccn(-c3ccc4[nH]nc(-c5ccncc5)c4c3)n2)C1` (centres unmarked) [Example 368, 5-[3-[1-[(2-FLUORO-6- METHOXYPHENYL)METHYL]- 3-PIPERIDINYL]-1H- PYRAZOL-1-YL]-3-(4- PYRIDINYL)-1H-INDAZOLE] gave a negative-log IC50 (pIC50) of under 6.00.
